Data as given in US10410851B2, “Matrix-assisted laser desorption mass spectrometry of high molecular weight polyoxyethylene derivative” (NOF CORPORATION, priority 2015, dated 2019).

Assay: 1-octanol/water partition coefficient (logPow) of the matrix by the high-performance liquid chromatography method, OECD Test Guideline 117
Assay type: physicochemical
Details: HPLC method of OECD Test Guideline 117, matrix for MALDI mass spectrometry
Excerpt: The low polar matrix for MALDI mass spectrometry which can be used in the invention is a low polar matrix having a 1-octanol/water partition coefficient from 4.1 to 4.8 (more preferably from 4.3 to 4.8). The 1-octanol/water partition coefficient of the matrix is a numerical value measured by the high-performance liquid chromatography method described in OECD Test Guideline 117.

O=C(O)c1cc(O)ccc1O [2,5-dihydroxybenzoic acid]
chromatographic logP (1-octanol/water): 0.6

C/C(C=C(C#N)C#N)=C\c1ccc(C(C)(C)C)cc1 [Trans-2-[3-(4-tert-butylphenyl)-2-methyl-2-propenylidene]malononitrile]
1-octanol/water partition coefficient (logPow): 4.6

N#CC(=Cc1ccc(O)cc1)C(=O)O [α-cyano-4-hydroxycinnamic acid]
chromatographic logP: 0.9
